In PMC8144350, “Block of TREK and TRESK K2P channels by lamotrigine and two derivatives sipatrigine and CEN-092” (Biochemistry and Biophysics Reports, 2021):
pEC50: −log10 of the molar value.

Assays:
Assay in all cases: whole-cell patch-clamp, tsA201 cells
Format in all cases: cell-based
[1] = molecular target: T1, TREK-2 (Homo sapiens, UniProt P57789)
T1 construct: gene KCNK10; wild-type human TREK-2 (NP_612190.1)
T1 sequence (P57789 1-538): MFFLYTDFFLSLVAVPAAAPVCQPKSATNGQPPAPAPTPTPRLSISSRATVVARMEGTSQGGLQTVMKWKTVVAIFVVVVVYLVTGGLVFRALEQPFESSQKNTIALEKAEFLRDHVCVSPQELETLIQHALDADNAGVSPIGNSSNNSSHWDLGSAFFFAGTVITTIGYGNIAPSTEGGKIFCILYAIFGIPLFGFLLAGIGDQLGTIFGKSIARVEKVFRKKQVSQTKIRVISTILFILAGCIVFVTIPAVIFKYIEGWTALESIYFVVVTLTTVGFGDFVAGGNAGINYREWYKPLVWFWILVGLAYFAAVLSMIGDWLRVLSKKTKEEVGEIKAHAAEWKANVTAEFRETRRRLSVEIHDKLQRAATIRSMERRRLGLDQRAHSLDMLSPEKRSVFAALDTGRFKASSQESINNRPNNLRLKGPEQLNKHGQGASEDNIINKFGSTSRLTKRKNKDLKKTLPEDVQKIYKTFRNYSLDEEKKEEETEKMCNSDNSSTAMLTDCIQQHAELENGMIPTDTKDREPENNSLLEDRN

[2] = molecular target: T2, TRESK (Homo sapiens, UniProt Q7Z418)
T2 construct: gene KCNK18; wild-type human TRESK (NP_862823.1)
T2 sequence (Q7Z418 1-384): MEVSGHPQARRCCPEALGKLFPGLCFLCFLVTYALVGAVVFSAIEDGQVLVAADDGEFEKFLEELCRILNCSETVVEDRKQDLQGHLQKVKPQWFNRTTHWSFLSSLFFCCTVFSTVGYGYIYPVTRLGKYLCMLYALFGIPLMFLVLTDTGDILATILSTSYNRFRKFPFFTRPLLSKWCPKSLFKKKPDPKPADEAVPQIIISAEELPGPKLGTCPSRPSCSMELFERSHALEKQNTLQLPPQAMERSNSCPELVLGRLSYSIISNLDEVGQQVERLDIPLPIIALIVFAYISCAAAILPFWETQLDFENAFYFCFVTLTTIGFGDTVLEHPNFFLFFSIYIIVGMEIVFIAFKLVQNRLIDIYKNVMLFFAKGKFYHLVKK

[3] = molecular target: T3, TREK-1 (Homo sapiens, UniProt O95069)
T3 construct: gene KCNK2; wild-type human TREK-1 (NP_055032.1)
T3 sequence (O95069 1-426): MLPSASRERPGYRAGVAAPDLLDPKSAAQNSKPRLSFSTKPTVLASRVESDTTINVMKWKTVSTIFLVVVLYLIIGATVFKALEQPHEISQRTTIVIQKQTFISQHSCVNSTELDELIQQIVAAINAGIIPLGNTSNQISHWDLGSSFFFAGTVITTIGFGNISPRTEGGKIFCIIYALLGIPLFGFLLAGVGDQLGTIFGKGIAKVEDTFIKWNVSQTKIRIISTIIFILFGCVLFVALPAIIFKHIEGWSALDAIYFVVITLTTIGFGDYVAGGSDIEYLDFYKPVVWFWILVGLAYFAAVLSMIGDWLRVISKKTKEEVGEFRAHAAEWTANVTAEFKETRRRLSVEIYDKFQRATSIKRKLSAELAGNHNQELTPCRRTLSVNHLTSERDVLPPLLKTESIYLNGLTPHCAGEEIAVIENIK

[4] = molecular target: T3, TREK-1; remark: listed apart in the source

SMILES	inhibition at 100 µM [1] [%]	inhibition at 100 µM [2] [%]	inhibition at 100 µM [3] [%]	pEC50 [4]
Nc1nnc(-c2cccc(Cl)c2Cl)c(N)n1 [lamotrigine]	14	35	30	–
Nc1nnc(-c2cc(C(F)(F)F)cc(C(F)(F)F)c2)c(N)n1 [CEN-092, 3,5-diamino-6-(3,5-bistrifluoromethylphenyl)-1,2,4-triazine]	–	43	21	–
CN1CCN(c2ncc(-c3cc(Cl)cc(Cl)c3Cl)c(N)n2)CC1 [sipatrigine]	85	–	–	4.80
